The values that follow come from publication PMC6377810 (ACS chemical biology, 2018).

Where two headings read alike, the source gives them in different places.

Assay [1] addresses T1, Hsc70 (Homo sapiens, UniProt P11142). The assay is described as follows: malachite green ATP turnover assay. Format: biochemical.
The target in assay [2] is T1, Hsc70. The assay is described as follows: direct binding by quench of compound fluorescence.
Assay [3] deals with T1, Hsc70. The experiment in a line: direct binding by quench of compound fluorescence. The source holds these as a separate data set.
Assay [4] deals with Hsp72 (Homo sapiens) (UniProt P0DMV8). The note with it: cited from earlier work.
Hsp72 (Homo sapiens), sequence (P0DMV8 2-641): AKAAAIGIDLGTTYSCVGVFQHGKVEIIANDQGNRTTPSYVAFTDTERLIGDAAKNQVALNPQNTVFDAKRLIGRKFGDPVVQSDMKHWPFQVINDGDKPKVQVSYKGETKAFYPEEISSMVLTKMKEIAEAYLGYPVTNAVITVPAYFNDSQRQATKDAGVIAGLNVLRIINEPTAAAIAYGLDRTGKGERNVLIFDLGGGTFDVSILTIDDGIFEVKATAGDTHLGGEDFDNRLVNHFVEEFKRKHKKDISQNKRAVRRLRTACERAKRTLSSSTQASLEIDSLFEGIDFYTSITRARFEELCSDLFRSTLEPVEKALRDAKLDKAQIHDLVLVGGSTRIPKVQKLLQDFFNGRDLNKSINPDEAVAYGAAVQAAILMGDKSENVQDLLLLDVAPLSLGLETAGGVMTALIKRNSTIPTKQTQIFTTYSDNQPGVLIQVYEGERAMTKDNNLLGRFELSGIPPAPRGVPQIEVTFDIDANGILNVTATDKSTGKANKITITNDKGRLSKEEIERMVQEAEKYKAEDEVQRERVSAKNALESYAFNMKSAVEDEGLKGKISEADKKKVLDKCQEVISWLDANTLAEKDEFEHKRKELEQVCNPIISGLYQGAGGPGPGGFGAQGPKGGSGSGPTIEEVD
Assay [5] shares this target. The note with it: cited from earlier work. This is another data set of the same source.

T1 sequence (P11142 whole entry): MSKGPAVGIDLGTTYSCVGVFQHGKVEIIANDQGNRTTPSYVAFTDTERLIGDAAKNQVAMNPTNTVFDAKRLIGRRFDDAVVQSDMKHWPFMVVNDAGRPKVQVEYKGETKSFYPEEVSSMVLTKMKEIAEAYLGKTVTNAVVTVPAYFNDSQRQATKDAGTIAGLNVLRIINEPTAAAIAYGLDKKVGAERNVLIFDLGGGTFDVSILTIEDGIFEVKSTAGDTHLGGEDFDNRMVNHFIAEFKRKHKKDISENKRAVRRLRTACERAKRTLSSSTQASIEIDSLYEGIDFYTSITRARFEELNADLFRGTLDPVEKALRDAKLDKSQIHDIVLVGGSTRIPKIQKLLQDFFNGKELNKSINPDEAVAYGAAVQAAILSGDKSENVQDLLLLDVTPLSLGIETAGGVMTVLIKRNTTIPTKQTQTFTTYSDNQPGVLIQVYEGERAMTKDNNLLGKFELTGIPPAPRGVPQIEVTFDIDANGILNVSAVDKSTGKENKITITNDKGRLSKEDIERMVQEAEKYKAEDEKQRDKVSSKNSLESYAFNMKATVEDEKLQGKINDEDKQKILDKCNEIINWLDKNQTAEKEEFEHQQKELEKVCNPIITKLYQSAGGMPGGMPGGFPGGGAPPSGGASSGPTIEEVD
BAG1, sequence (Q99933 whole entry): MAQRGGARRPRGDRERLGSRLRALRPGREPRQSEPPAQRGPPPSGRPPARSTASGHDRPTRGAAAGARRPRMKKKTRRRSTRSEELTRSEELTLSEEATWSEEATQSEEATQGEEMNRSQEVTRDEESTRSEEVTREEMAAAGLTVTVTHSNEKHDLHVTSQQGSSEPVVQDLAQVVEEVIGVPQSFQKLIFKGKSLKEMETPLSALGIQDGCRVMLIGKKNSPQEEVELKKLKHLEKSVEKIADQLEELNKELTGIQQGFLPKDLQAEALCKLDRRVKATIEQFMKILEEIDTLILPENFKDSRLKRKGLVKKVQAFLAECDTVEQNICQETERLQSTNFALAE

Consider `Nc1ncnc2c1ncn2[C@@H]1O[C@H](COP(=O)(O)OP(=O)(O)OP(=O)(O)O)[C@@H](O)[C@H]1O` [ATP], for which the “malachite green ATP turnover assay; partial proteolysis in the ATP-bound state” value in assay [1] was ~ 2 pmol/µM Hsc70/min.
Take `CCn1c(=O)/c(=C2\Sc3cc(Cl)ccc3N2C)s/c1=C\c1scc[n+]1Cc1cccc(C(F)(F)F)c1` [JG-115, 2-((Z)-((E)-5-(6-chloro-3-methylbenzo[d]thiazol-2(3H)-ylidene)-3-ethyl-4-oxothiazolidin-2-ylidene)methyl)-3-(3-(trifluoromethyl)benzyl)thiazol-3-ium chloride]: the Kd in assay [2] was roughly 3.1 µM.
Same read-out and setting: with `CCn1c(=O)/c(=C2\Sc3cc(Cl)ccc3N2C)s/c1=C\c1scc[n+]1Cc1ccc(C(F)(F)F)cc1` [JG-118, 2-((Z)-((E)-5-(6-chloro-3-methylbenzo[d]thiazol-2(3H)-ylidene)-3-ethyl-4-oxothiazolidin-2-ylidene)methyl)-3-(4-(trifluoromethyl)benzyl)thiazol-3-ium chloride] the figure was roughly 2.6 µM.
With `CCn1c(=O)/c(=C2\Sc3cc(Cl)ccc3N2C)s/c1=C\c1scc[n+]1Cc1ccccc1OC(F)F` [JG-237, 2-((Z)-((E)-5-(6-chloro-3-methylbenzo[d]thiazol-2(3H)-ylidene)-3-ethyl-4-oxothiazolidin-2-ylidene)methyl)-3-(2-(difluoromethoxy)benzyl)thiazol-3-ium chloride], the Kd in assay [3] was found to be 1.5 ± 0.3 µM.
As for BAG1 (from UniProt Q99933), the results for the Kd in assay [4] and in assay [5] were 0.036 µM and 0.008 µM, respectively.
